Results published in patent US20230278972A1, “SUBSTITUTED HALOALKYL SULFONANILIDE HERBICIDES” (FMC Corporation, priority 2020, published 2023).

Tests used:
Type in all cases: in vivo
[1] = system: blackgrass (Alopecurus myosuroides); assay: Test A postemergence, blackgrass; settings: Postemergence, 0 to 100 scale (0 no effect, 100 complete control)
Outline: (§1)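 Greenhouse pot test in a loam–sand blend; compounds delivered in a non-phytotoxic solvent carrying a surfactant, applied either as a directed spray to soil at seeding or over seedlings 2 to 10 cm high with one to two leaves.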

[2] = system: Ryegrass, Italian (Italian ryegrass, Lolium multiflorum); assay: Test A preemergence, Ryegrass, Italian; settings: Preemergence; for Plant response rating, Ryegrass, Italian: 0 to 100 scale (0 no effect, 100 complete control)
Outline: as §1

[3] = system: ragweed (common ragweed, Ambrosia artemisiifolia); assay: Test A preemergence, ragweed; settings: Preemergence; for Plant response rating, Ragweed: 0 to 100 scale (0 no effect, 100 complete control)
Outline: as §1

[4] = system: barnyardgrass (Echinochloa crus-galli); assay: Test A preemergence, barnyardgrass; settings: Preemergence; for Plant response rating, Barnyardgrass: 0 to 100 scale (0 no effect, 100 complete control)
Outline: as §1

kochia (Bassia scoparia) [5] = assay: Test A preemergence, kochia; settings: Preemergence; for Plant response rating, Kochia: 0 to 100 scale (0 no effect, 100 complete control)
Outline: as §1

[6] = system: barnyardgrass (Echinochloa crus-galli); assay: Test A postemergence, barnyardgrass; settings: Postemergence, 0 to 100 scale (0 no effect, 100 complete control)
Outline: (§2)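 Directed soil spray at planting gave the preemergence treatment, while foliar application to one- to two-leaf seedlings (2–10 cm) gave the postemergence one; pots held a loam and sand mixture and chemicals were carried in a non-phytotoxic solvent with surfactant.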

kochia (Bassia scoparia) [7] = assay: Test A postemergence, kochia; settings: Postemergence, 0 to 100 scale (0 no effect, 100 complete control)
Outline: as §1

[8] = system: wheat (Triticum aestivum); assay: Test A postemergence, wheat; settings: Postemergence, 0 to 100 scale (0 no effect, 100 complete control)
Outline: as §2

[9] = system: pigweed (Amaranthus retroflexus); assay: Test A postemergence, pigweed; settings: Postemergence, 0 to 100 scale (0 no effect, 100 complete control)
Outline: as §1

[10] = system: Ryegrass, Italian (Italian ryegrass, Lolium multiflorum); assay: Test A postemergence, Ryegrass, Italian; settings: Postemergence, 0 to 100 scale (0 no effect, 100 complete control)
Outline: as §1

corn (Zea mays) = assay: Test A postemergence, corn; settings: Postemergence, 0 to 100 scale (0 no effect, 100 complete control)
Outline: as §1

[11] = system: Foxtail, Giant (giant foxtail, Setaria faberi); assay: Test A preemergence, Foxtail, Giant; settings: Preemergence; for Plant response rating, Foxtail, Giant: 0 to 100 scale (0 no effect, 100 complete control)
Outline: as §1

[12] = system: pigweed (Amaranthus retroflexus); assay: Test A preemergence, pigweed; settings: for Plant response rating, Pigweed: 0 to 100 scale (0 no effect, 100 complete control)
Outline: as §2

[13] = system: ragweed (common ragweed, Ambrosia artemisiifolia); assay: Test A postemergence, ragweed; settings: Postemergence, 0 to 100 scale (0 no effect, 100 complete control)
Outline: as §1

[14] = system: galium (catchweed bedstraw, Galium aparine); assay: Test A postemergence, galium; settings: Postemergence, 0 to 100 scale (0 no effect, 100 complete control)
Outline: as §2

[15] = system: Foxtail, Giant (giant foxtail, Setaria faberi); assay: Test A postemergence, Foxtail, Giant; settings: Postemergence, 0 to 100 scale (0 no effect, 100 complete control)
Outline: as §1

[16] = 125 g ai/ha, visual injury approx. 10 days
[17] = 31 g ai/ha, visual injury, approx. 10 days
[18] = 125 g ai/ha, visual injury on 0 to 100 scale (0 no effect, 100 complete control), approximately 10 days
[19] = 1000 g ai/ha, visual injury, approx. 10 days

CSC1CCCN(C(=O)c2cc(NS(=O)(=O)C(F)(F)F)c(C)cc2C)C1 (stereo not shown) [Compound 3]
Plant response rating, Blackgrass ([1]; 31 g ai/ha): 0
Plant response rating, Blackgrass [1, 16]: 0
Plant response rating, Ryegrass, Italian [2, 17]: 20
Ryegrass, Italian plant response rating [2, 18]: 70
Plant response rating, Ragweed [3, 17]: 0
Ragweed plant response rating [3, 18]: 70
Plant response rating, Barnyardgrass [4, 17]: 0
Barnyardgrass plant response rating [4, 18]: 50
Plant response rating, Kochia (kochia (Bassia scoparia) [5]; [17]): 30
Kochia plant response rating (kochia (Bassia scoparia) [5]; [18]): 80
Plant response rating, Barnyardgrass ([6]; 31 g ai/ha): 0
Plant response rating, Barnyardgrass [6, 16]: 30
Plant response rating, Kochia (kochia (Bassia scoparia) [7]; 31 g ai/ha): 10
Plant response rating, Kochia (kochia (Bassia scoparia) [7]; [16]): 40
Plant response rating, Wheat ([8]; 31 g ai/ha): 30
Plant response rating, Wheat [8, 16]: 50
Plant response rating, Pigweed ([9]; 31 g ai/ha): 70
Plant response rating, Pigweed [9, 16]: 90
Plant response rating, Ryegrass, Italian ([10]; 31 g ai/ha): 0
Plant response rating, Ryegrass, Italian [10, 16]: 0
Plant response rating, Corn (corn (Zea mays); 31 g ai/ha): 20
Plant response rating, Corn (corn (Zea mays); [16]): 30
Plant response rating, Foxtail, Giant [11, 17]: 20
Foxtail, Giant plant response rating [11, 18]: 50
Plant response rating, Pigweed [12, 17]: 90
Pigweed plant response rating [12, 18]: 100
Plant response rating, Ragweed ([13]; 31 g ai/ha): 40
Plant response rating, Ragweed [13, 16]: 80
Plant response rating, Galium ([14]; 31 g ai/ha): 90
Plant response rating, Galium [14, 16]: 90
Plant response rating, Foxtail, Giant ([15]; 31 g ai/ha): 0
Plant response rating, Foxtail, Giant [15, 16]: 0

Cc1ccc(C(=O)N2CCC(C)CC2)cc1NS(=O)(=O)C(F)(F)F [Compound 7]
Plant response rating, Blackgrass [1, 19]: 20
Plant response rating, Ryegrass, Italian ([2]; 1000 g ai/ha): 60
Plant response rating, Ragweed ([3]; 1000 g ai/ha): 80
Plant response rating, Barnyardgrass ([4]; 1000 g ai/ha): 80
Plant response rating, Kochia (kochia (Bassia scoparia) [5]; 1000 g ai/ha): 30
Plant response rating, Barnyardgrass [6, 19]: 20
Plant response rating, Kochia (kochia (Bassia scoparia) [7]; [19]): 40
Plant response rating, Wheat [8, 19]: 0
Plant response rating, Pigweed [9, 19]: 20
Plant response rating, Ryegrass, Italian [10, 19]: 90
Plant response rating, Corn (corn (Zea mays); [19]): 0
Plant response rating, Foxtail, Giant ([11]; 1000 g ai/ha): 90
Plant response rating, Pigweed ([12]; 1000 g ai/ha): 80
Plant response rating, Ragweed [13, 19]: 20
Plant response rating, Galium [14, 19]: 40
Plant response rating, Foxtail, Giant [15, 19]: 0

Cc1cc(C)c(C(=O)N2CCC(F)CC2)cc1NS(=O)(=O)C(F)(F)F [Compound 8]
Plant response rating, Blackgrass [1, 19]: 70
Plant response rating, Ryegrass, Italian ([2]; 1000 g ai/ha): 100
Plant response rating, Ragweed ([3]; 1000 g ai/ha): 90
Plant response rating, Barnyardgrass ([4]; 1000 g ai/ha): 100
Plant response rating, Kochia (kochia (Bassia scoparia) [5]; 1000 g ai/ha): 100
Plant response rating, Barnyardgrass [6, 19]: 80
Plant response rating, Kochia (kochia (Bassia scoparia) [7]; [19]): 80
Plant response rating, Wheat [8, 19]: 40
Plant response rating, Pigweed [9, 19]: 80
Plant response rating, Ryegrass, Italian [10, 19]: 80
Plant response rating, Corn (corn (Zea mays); [19]): 30
Plant response rating, Foxtail, Giant ([11]; 1000 g ai/ha): 100
Plant response rating, Pigweed ([12]; 1000 g ai/ha): 100
Plant response rating, Ragweed [13, 19]: 90
Plant response rating, Galium [14, 19]: 20
Plant response rating, Foxtail, Giant [15, 19]: 90
